From patent publication US20250041235A1, “FUNCTIONALIZED BIOLOGICAL MEMBRANES WITH MODIFYING PROTEIN MOLECULES, AND METHODS OF MAKING AND USES THEREOF” (McMaster University, priority 2021, published 2025) come the findings set out here.

One data set relates to E. coli. Briefly: Bacterial growth curves (OD600, 24 h) for E. coli. The format is cell-based. Here is the method: Bacterial growth curves for E. coli for different concentrations of (free) PmB (MIC, 0.5 MIC, 0.25 MIC, and 0 MIC) are shown in FIG. 12 a). […] Absorbance at 600 nm (OD 600) was measured during a period of 24 h. […] Bacteria treated with 0.25 MIC behaved similarly. A lag phase was observed before the first exponential cycle after the addition of an intermediate concentration of 0.5 MIC, where exponential growth was delayed by ˜9 h. […] Growth curves for E. coli treated with varying concentrations of Erythro-PmBs containing MIC, 0.5 MIC, 0.25 MIC, and 0 MIC of PmB are shown in FIG. 12 b).

For the next data set, the system named is red blood cells. The data set can be described thus: Hemolytic assay (hemoglobin release by UV absorption). The following applies: PmB concentrations from 0 MIC to MIC. The data set is classed as cell-based. Here is the method:
12% Triton X-100 was used as a total lysis control, and PBS was used as a negative control.
Hemolysis was determined from hemoglobin release measured by UV absorption. Data are shown for free PmB and Erythro-PmBs at different PmB concentrations from 0 MIC to MIC. Values in the order of 0.03% were determined to be well below the benchmark hemolysis rate of 2% identified by the American Society of Clinical Pathology and were considered to be non-hemolytic. […] Hemolytic activity of the Erythro-PmBs was less than that of free PmB, less than 0.01%, and independent of PmB concentration (within experimental error).

The next data set has as its system K. aerogenes. The data set can be described thus: Bacterial growth curves (OD600, 24 h) for K. aerogenes. The format is cell-based, Klebsiella aerogenes. From the text: The lengths of the lag phase decreased monotonously with decreasing PmB concentration, similar to E. coli.
Bacterial growth curves for K. aerogenes for different concentrations of (free) PmB (MIC, 0.5 MIC, 0.25 MIC, and 0 MIC) are shown in FIG. 13 a). […] Diauxic growth was less evident in the presence of free PmB: 0.25 MIC to MIC.

For the substance polymyxin B [free PmB], the “delay of exponential growth (lag phase)” value in the data set with E. coli (0.5 MIC) was ~9 h. Also, the “minimum inhibitory concentration (MIC)” value was 0.63 µg/mL in the data set with E. coli (OD600 over 24 h) and 1.5 µg/mL in the data set on K. aerogenes (OD600 over 24 h). In addition, in the data set on E. coli (PmB content at MIC (0.63 μg/mL)), the “growth at MIC” value was “No growth”. For the same substance, the hemolysis in the data set on red blood cells is on record as ~0.03%. For the same substance, the lag phase with K. aerogenes (0.25 MIC) was 6 h; in the data set with K. aerogenes (0.5 MIC), 9 h.
